According to US20100048462A1, “TRUNCATED PTH PEPTIDES WITH A CYCLIC CONFORMATION” (Zealand Pharma A/S, priority 2006, published 2010):
“Also recorded” adds a separate entry of the source. Bridge positions count the residues as written; N and C are the ends. Square brackets hold non-standard residues; d marks the D form. Peptide text beside a SMILES is read from it. hArg = N=C(N)NCCCC[C@H](N)C(=O)O; Ac5c = NC1(C(=O)O)CCCC1; Aib = CC(C)(N)C(=O)O

Assays:
PTH receptor 1 = target: T1, PTH receptor 1 (Mus musculus, UniProt P41593); experiment: MC3T3-E1 cAMP efficacy assay; type: cell-based, murine; details: MC3T3-E1 cells; for EC50: 100 μM IBMX, 37° C.; for Emax ± SEM [pmol/well]: maximally inducible cAMP
T1 construct: host or cells: MC3T3-E1 subclone 4
T1 sequence (P41593 27-591): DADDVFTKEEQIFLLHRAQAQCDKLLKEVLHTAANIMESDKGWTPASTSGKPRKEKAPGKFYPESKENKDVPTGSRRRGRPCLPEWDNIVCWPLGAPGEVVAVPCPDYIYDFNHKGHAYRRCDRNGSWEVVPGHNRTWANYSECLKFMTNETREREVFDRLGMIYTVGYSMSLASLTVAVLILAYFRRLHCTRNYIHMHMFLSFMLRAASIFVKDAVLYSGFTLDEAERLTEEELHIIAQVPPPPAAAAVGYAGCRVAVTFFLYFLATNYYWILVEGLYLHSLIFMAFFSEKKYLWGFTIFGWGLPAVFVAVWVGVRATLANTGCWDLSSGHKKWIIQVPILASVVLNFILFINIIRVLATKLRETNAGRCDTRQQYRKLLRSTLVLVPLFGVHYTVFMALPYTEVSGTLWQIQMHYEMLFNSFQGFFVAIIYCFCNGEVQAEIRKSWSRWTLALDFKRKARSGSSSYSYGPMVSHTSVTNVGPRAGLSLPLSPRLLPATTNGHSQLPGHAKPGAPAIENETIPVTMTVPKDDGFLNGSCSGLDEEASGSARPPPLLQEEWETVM
Description: MC3T3-E1 cells were seeded at 10,000 cells/well in 96-microtiter plates and grown overnight before the efficacy assays. On the day of analysis the growth medium was carefully removed by suction. Cells were washed once with 200 μl TB/0.1% […]. The buffer was replaced with 100 μl reaction mixture (±test peptide, +100 μM IBMX) and incubated at 37° C. for 13 min. The reaction was stopped by addition of 25 μl of ice-cold 0.5 M HCl. Cells were in the following incubated on ice for 60 min. 75 μl acetate-buffer were added to each well in a 96-well cAMP FlashPlate. […] FlashPlates were incubated overnight at 4° C., emptied by suction and counted in a TopCounter.
Determinations were performed in triplicates at all doses. Standards were included as single determinations, duplicates or triplicates in each experiment, preferentially on each plate.
Efficacy was evaluated in the concentration range from […].
Concentration-dependent cAMP responses were imported into GraphPad Prism vers. 4, transformed and plotted. Curves were fitted with a function for sigmoidal dose response curve non-linear fit Y=Bottom+(Top-Bottom)/(1+10̂((LogEC50-X))) where X is the logarithm of concentration and Y is the response. Y starts at Bottom and goes to Top with a sigmoid shape. pEC50 and the maximally inducible concentration of cAMP were evaluated. Overall statistical differences were analyzed using one-way ANOVA. Post-hoc comparisons were made by the use of Fisher's Least Significance Test. Results were considered significant, when p was lower than 0.05.

CYP2D6 = CYP2D6 (Homo sapiens, UniProt P10635); experiment: CYP2D6 inhibition in pooled human liver microsomes; type: in vitro ADME; set-up: Pooled human liver microsomes (HLM, final concentration 0.05 mg protein/mL); tissue BD Biosciences 452161; host or cells: pooled human liver microsomes; details: 10 μM compound, dextrorphan formation rate
Chain of CYP2D6 (P10635 whole entry): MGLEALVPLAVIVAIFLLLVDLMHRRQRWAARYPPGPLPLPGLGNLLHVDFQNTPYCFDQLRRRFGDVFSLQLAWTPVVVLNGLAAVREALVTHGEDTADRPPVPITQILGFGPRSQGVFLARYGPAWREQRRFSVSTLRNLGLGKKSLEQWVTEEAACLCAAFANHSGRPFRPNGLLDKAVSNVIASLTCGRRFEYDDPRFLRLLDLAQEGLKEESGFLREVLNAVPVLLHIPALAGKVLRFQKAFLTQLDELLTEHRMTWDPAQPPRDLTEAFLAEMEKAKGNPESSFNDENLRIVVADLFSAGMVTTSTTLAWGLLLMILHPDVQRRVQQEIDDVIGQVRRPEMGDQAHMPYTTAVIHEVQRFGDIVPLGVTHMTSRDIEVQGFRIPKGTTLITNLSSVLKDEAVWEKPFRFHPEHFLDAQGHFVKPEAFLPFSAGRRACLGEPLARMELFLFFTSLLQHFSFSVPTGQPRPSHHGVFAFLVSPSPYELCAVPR
Description: Stock solutions of the test compounds (1 mM) were prepared in 50% isopropanol or 20% DMSO. Pooled human liver microsomes (HLM, final concentration 0.05 mg protein/mL) were mixed with phosphate buffer (0.1 M potassium phosphate, pH 7.4), CYP2D6 substrate (dextrometrorphan, 5 μM final concentration) and test compound (10 μM), quinidine (0.5 μM) or vehicle (0.2% DMSO or 0.5% isopropanol). The mixture was preincubated for 5 min at 37° C. prior to initiation of the reaction addition of a NADPH regenerating mixture (Final concentration: 1.25 mM NADP^+, 3.3 mM Glucose-6-phosphate, 3.3 mM MgCL2 and 0.4 U/mL glucose-6-phosphat dehydrogenase). After 5 minutes the reaction was stopped by addition of 0.25 volume stop reagent (94% acetonitrile, 6% acetic acid). Each experiment was performed in duplicate or triplicate.
The quantification of CYP2D6 product (dextrorphan) was performed by LC/MS/MS. After centrifugation for 5 min at 10.000 g, 40 μL of the supernatant was injected onto a C8 RP-HPLC column (XterraMS, C8, […], 50×2.1 mm). Dextrorphan was eluted by a linear gradient from 0 to 90% acetonitrile in 0.1% formic acid over 4 min using a flow rate of 0.15 ml/min. The concentration of dextrorphan in the reaction mixture was estimated from the peak area of the MS/MS transition (m/z 258.1>199) using an external calibration curve (Table 8).
The CYP2D6 activity in HLM was calculated as the metabolite formation rate: […]
Where, v is the formation rate, [metabolite] is the detected concentration of dextrorphan (pmol/mL) at the time (t, min) and [protein] is the protein concentration (mg/mL) in the reaction mixture. The influence of the test compounds on the CYP2D6 activity was calculated as % of the activity measured when incubated with the vehicle. The effect of CYP2D6 inhibitor (quinidine) was included as inhibition control within each batch analysis. A reduction in CYP2D6 activity to less than 70% of the vehicle control was considered significant.

Saos-2 PTH1R = target: T2, Saos-2 PTH1R (Homo sapiens, UniProt Q03431); experiment: cAMP-efficacy assay in Saos-2 cells; type: cell-based; details: for potency compared to linear / non-stabilized counterparts, in words / EC50: cAMP; for EC50: 100 μM IBMX, 37° C. 15 min, suffix of label = salt tested; for Emax ± SEM: relative effect to the control (SEQ ID NO: 32)
T2 construct: endogenous in cells; host or cells: Saos-2
T2 sequence (Q03431 27-593): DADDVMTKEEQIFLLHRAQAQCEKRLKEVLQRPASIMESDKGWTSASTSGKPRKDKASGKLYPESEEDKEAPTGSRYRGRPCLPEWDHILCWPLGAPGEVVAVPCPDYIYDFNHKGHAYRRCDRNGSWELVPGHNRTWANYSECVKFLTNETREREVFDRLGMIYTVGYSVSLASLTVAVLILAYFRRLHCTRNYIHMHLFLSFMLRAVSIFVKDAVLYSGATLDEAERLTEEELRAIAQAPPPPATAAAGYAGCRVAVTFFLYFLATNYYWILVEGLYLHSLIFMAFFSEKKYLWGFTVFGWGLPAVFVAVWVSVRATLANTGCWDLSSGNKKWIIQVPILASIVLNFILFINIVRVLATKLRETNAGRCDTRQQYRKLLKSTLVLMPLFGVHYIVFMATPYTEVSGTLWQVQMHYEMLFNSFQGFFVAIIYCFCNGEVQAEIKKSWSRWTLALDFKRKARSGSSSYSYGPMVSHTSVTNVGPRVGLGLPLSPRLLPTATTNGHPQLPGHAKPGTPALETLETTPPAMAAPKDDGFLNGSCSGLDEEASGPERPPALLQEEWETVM
Summary of the method: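 cAMP accumulation was assayed by FlashPlate after 15 min peptide stimulation at 37 °C of Saos-2 cells in Tyrode's buffer containing 100 μM IBMX and 0.1% BSA, with the reaction stopped by ice-cold HCl. Variable-slope logistic fitting gave EC50/pEC50, Hill coefficient and Emax, with single or triplicate points.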

Row | SMILES | potency comparison in words (PTH receptor 1; cAMP) | EC50 (PTH receptor 1; cAMP) [nM] | Emax ± SEM [pmol/well] (PTH receptor 1) | CYP2D6 activity (% of vehicle) (CYP2D6) | potency compared to linear / non-stabilized counterparts, in words (Saos-2 PTH1R) | potency compared to linear / non-stabilized counterparts, in words (Saos-2 PTH1R; listed as 2) | potency compared to linear / non-stabilized counterparts, in words (Saos-2 PTH1R; listed as SEQ ID NO:2) | EC50 (Saos-2 PTH1R) [nM] | Emax ± SEM (Saos-2 PTH1R)
1 | CC[C@H](C)[C@H](NC(=O)[C@H](CCC(=O)O)NC(=O)C(C)(C)NC(=O)[C@@H](NC(=O)C1(N)CCCC1)C(C)C)C(=O)N[C@@H](CCC(N)=O)C(=O)N[C@@H](CC(C)C)C(=O)N[C@@H](CCSC)C(=O)N[C@@H](Cc1c[nH]cn1)C(=O)N[C@@H](CCC(N)=O)C(=O)N[C@@H](CCCCNC(=N)N)C(=O)N[C@@H](C)C(=O)N[C@H]1CCCCNC(=O)C[C@@H](C(N)=O)NC(=O)[C@H](CC(N)=O)NC(=O)[C@H](CC(C)C)NC(=O)[C@H](Cc2c[nH]c3ccccc23)NC1=O [SEQ ID NO: 2, H-Ac5c-Val-Aib-Glu-Ile-Gln-Leu-Met-His-Gln-Har-Ala-Lys( )Trp-Leu-Asn-Asp( )-NH2] (H-[Ac5c]V[Aib]EIQLMHQ[hArg]AKWLND-NH2; lactam 13-17) | EC50 comparable to PTH(1-34); also recorded: significantly more potent than SEQ ID NO: 31, SEQ ID NO: 3 and SEQ ID NO: 42 | 1 | 4.9 ± 0.8 | 67 % of vehicle | significantly higher potency | increased potencies | significantly higher potency | – | –
2 | CC[C@H](C)[C@H](NC(=O)[C@H](CCC(=O)O)NC(=O)C(C)(C)NC(=O)[C@@H](NC(=O)C1(N)CCCC1)C(C)C)C(=O)N[C@@H](CCC(N)=O)C(=O)N[C@@H](CC(C)C)C(=O)N[C@@H](CCSC)C(=O)N[C@@H](Cc1c[nH]cn1)C(=O)N[C@@H](CCC(N)=O)C(=O)N[C@@H](CCCCNC(=N)N)C(=O)N[C@@H](C)C(=O)N[C@@H](CCCCN)C(=O)N[C@@H](Cc1c[nH]c2ccccc12)C(=O)N[C@@H](CC(C)C)C(=O)N[C@@H](CC(N)=O)C(=O)N[C@@H](CC(N)=O)C(N)=O [SEQ ID NO: 3, H-Ac5c-Val-Aib-Glu-Ile-Gln-Leu-Met-His-Gln-Har-Ala-Lys-Trp-Leu-Asn-Asn-NH2] (H-[Ac5c]V[Aib]EIQLMHQ[hArg]AKWLNN-NH2) | – | 2.51 | 5.5 ± 0.9 | 21 % of vehicle | – | – | – | 9.12 | 1.06 ± 0.06
3 | CC[C@H](C)[C@H](NC(=O)[C@H](CCC(=O)O)NC(=O)C(C)(C)NC(=O)[C@@H](NC(=O)C1(N)CCCC1)C(C)C)C(=O)N[C@@H](CCC(N)=O)C(=O)N[C@@H](CC(C)C)C(=O)N[C@@H](CCSC)C(=O)N[C@@H](Cc1c[nH]cn1)C(=O)N[C@@H](CCC(N)=O)C(=O)N[C@@H](CCCCNC(=N)N)C(=O)N[C@@H](C)C(=O)N[C@H]1CCCCNC(=O)C[C@@H](C(N)=O)NC(=O)[C@H](CC(C)C)NC(=O)[C@H](Cc2c[nH]c3ccccc23)NC1=O [SEQ ID NO: 30, H-Ac5c-Val-Aib-Glu-Ile-Gln-Leu-Met-His-Gln-Har-Ala-Lys( )-Trp-Leu-Asp( )-NH2] (H-[Ac5c]V[Aib]EIQLMHQ[hArg]AKWLD-NH2; lactam 13-16) | – | 10 | 5.0 ± 0.2 | 83 % of vehicle | – | – | – | 81.3 | 1.04 ± 0.05
4 | CC[C@H](C)[C@H](NC(=O)[C@H](CCC(=O)O)NC(=O)C(C)(C)NC(=O)[C@@H](NC(=O)C1(N)CCCC1)C(C)C)C(=O)N[C@@H](CCC(N)=O)C(=O)N[C@@H](CC(C)C)C(=O)N[C@@H](CCSC)C(=O)N[C@@H](Cc1c[nH]cn1)C(=O)N[C@@H](CCC(N)=O)C(=O)N[C@@H](CCCCNC(=N)N)C(=O)N[C@@H](C)C(=O)N[C@@H](CCCCN)C(=O)N[C@@H](Cc1c[nH]c2ccccc12)C(N)=O [SEQ ID NO: 31, H-Ac5c-Val-Aib-Glu-Ile-Gln-Leu-Met-His-Gln-Har-Ala-Lys-Trp-NH2, reference compound] (H-[Ac5c]V[Aib]EIQLMHQ[hArg]AKW-NH2) | – | 3.98 | 4.5 ± 1.0 | 22 % of vehicle | – | – | – | 21.9 | 1.07 ± 0.04
